Assay results published in patent publication US8680159B2, “Bradykinin 1 receptor modulating compounds” (Gruenenthal GmbH, priority 2010, dated 2014).

Experiments:
[1] = molecular target: T1, B1R receptor of the rat (CHO K1 cells stably transfected with the B1R gene of the rat) (Rattus norvegicus, UniProt P97583); test: Functional study on the bradykinin receptor 1 (B1R), Ca2+ fluorescence (Fluo-4) FLIPR/Novostar assay, rB1R cells; format: cell-based; details: CHO-K1, 10 μM, read-out: % inhibition (rat B1R) at 10 μM
T1 construct: expressed in transfected cells; host or cells: CHO K1 cells (Chinese hamster ovary), stably transfected
T1 sequence (P97583 1-337): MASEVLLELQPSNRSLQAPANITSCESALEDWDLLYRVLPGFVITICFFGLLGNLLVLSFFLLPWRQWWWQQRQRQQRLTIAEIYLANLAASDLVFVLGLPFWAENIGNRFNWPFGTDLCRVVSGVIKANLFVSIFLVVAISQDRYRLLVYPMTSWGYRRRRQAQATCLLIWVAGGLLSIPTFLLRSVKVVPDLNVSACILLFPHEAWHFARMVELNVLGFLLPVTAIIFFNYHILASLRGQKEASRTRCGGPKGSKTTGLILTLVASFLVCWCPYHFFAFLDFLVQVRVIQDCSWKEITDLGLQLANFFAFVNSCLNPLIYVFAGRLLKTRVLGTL
Summary of the method: (§1)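 Test compounds (10 μM) were added first and the Ca2+ rise was scored as % activation against Lys-Des-Arg9-bradykinin (≥50 nM, human) or Des-Arg9-bradykinin (≥1 μM, rat). After 6-20 min, the matching agonist was given at its EC80, and % inhibition relative to maximal achievable inhibition was calculated.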

[2] = molecular target: T2, human B1R receptor (CHO K1 cells stably transfected with the human B1R gene) (Homo sapiens, UniProt P46663); test: Functional study on the bradykinin receptor 1 (B1R), Ca2+ fluorescence (Fluo-4) FLIPR/Novostar assay, hB1R cells; format: cell-based; details: CHO-K1, read-out: % inhibition (human B1R) at 10 μM
T2 construct: expressed in transfected cells; host or cells: CHO K1 cells (Chinese hamster ovary), stably transfected
T2 sequence (P46663 1-353): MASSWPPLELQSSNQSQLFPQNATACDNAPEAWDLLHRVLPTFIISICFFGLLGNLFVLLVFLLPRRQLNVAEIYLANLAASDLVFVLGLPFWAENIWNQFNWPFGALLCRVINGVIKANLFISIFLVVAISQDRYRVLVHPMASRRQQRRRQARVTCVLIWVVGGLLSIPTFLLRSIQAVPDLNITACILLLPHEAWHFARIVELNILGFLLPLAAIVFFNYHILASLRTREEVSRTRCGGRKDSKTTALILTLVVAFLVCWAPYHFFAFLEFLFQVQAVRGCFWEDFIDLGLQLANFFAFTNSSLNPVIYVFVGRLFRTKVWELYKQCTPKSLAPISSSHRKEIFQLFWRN
Summary of the method: as §1

SMILES	inhibition at 10 µM [1] [%]	inhibition at 10 µM [2] [%]
Cc1cc(CN2CCC(N(C)C(=O)c3ccc4c(c3)[C@H](NC(=O)c3ccccc3Cl)CC4)CC2)on1 [Example H-134, (3R)-3-[(2-Chloro-benzoyl)amino] N-methyl-N-[1-[(3-methyl-isoxazol-5-yl)-methyl]-piperidin-4-yl]-2,3-dihydro-1H-indene-5-carboxylic acid amide]	55	8
CN(CC1CCN(c2ccncn2)CC1)C(=O)c1ccc2c(c1)[C@H](NC(=O)c1ccccc1Cl)CC2 [Example H-136, (3R)-3-[(2-Chloro-benzoyl)amino]-N-methy-N-[(1-pyrimidin-4-yl-piperidin-4-yl)-methyl]-2,3-dihydro-1H-indene-5-carboxylic acid amide]	107	41
CN1CCN(C(=O)CN2CCC(N(C)C(=O)c3ccc4c(c3)[C@H](NC(=O)c3ccccc3Cl)CC4)CC2)CC1 [Example H-138, (3R)-3-[(2-Chloro-benzoyl)amino]-N-methyl-N-[1-[2-(4-methyl-piperazin-l-yl)-2-oxo-ethyl]-piperidin-4-yl]-2,3-dihydro-1H-indene-5-carboxylic acid amide]	41	91
CN(C(=O)c1ccc2c(c1)[C@H](NC(=O)c1ccccc1Cl)CC2)C1CCN(CC(=O)N2CCCC2)CC1 [Example H-140, (3R)-3-[(2-Chloro-benzoyl)amino]-N-methyl-N-[1-(2-oxo-2-pyrrolidin-1-yl-ethyl)-piperidin-4-yl]-2,3-dihydro-1H-indene-5-carboxylic acid amide]	49	47
Cc1cc(N2CCC(N(C)C(=O)c3ccc4c(c3)[C@H](NC(=O)c3ccccc3Cl)CC4)CC2)ncn1 [Example H-141, (3R)-3-[(2-Chloro-benzoyl)amino]-N-methyl-N-[1-(6-methyl-pyrimidin-4-yl)-piperidin-4-yl]-2,3-dihydro-1H-indene-5-carboxylic acid amide]	105	99

Further lines, results first:

inhibition at 10 µM [1] [%]	inhibition at 10 µM [2] [%]	SMILES
100	99	Cc1cc(N2CCC(N(C)C(=O)c3ccc4c(c3)[C@H](NC(=O)c3cc(F)ccc3Cl)CC4)CC2)nc(C)n1 [Example H-133, (3R)-3-[(2-Chloro-5-fluoro-benzoyl)amino]-N-[1-(2,6-dimethyl-pyrimidin-4-yl)-piperidin-4-yl]-N-methyl-2,3-dihydro-1H-indene-5-carboxylic acid amide]
106	99	Cc1cc(N2CCC(N(C)C(=O)c3ccc4c(c3)[C@H](NC(=O)c3cccc(C(F)(F)F)c3Cl)CC4)CC2)nc(C)n1 [Example H-135, (3R)-3-[[2-Chloro-3-(trifluoromethyl)-benzoyl]amino]-N-[1-(2,6-dimethyl-pyrimidin-4-yl)-piperidin-4-yl]-N-methyl-2,3-dihydro-1H-indene-5-carboxylic acid amide]
109	99	Cc1cc(N2CCC(N(C)C(=O)c3ccc4c(c3)[C@H](NC(=O)c3cc(C(F)(F)F)ccc3Cl)CC4)CC2)nc(C)n1 [Example H-137, (3R)-3-[[2-Chloro-5-(trifluoromethyl)-benzoyl]amino]-N-[1-(2,6-dimethyl-pyrimidin-4-yl)-piperidin-4-yl]-N-methyl-2,3-dihydro-1H-indene-5-carboxylic acid amide]
97	100	Cc1cc(N2CCC(N(C)C(=O)c3ccc4c(c3)[C@H](NC(=O)c3ccccc3Cl)CC4)CC2)nc(C(C)C)n1 [Example H-139, (3R)-3-[(2-Chloro-benzoyl)amino]-N-[1-(2-isopropyl-6-methyl-pyrimidin-4-yl)-piperidin-4-yl]-N-methyl-2,3-dihydro-1H-indene-5-carboxylic acid amide]
